Test results published in ChEMBL document CHEMBL4813963, “Discovery of pyrazolo-thieno[3,2-d]pyrimidinylamino-phenyl acetamides as type-II pan-tropomyosin receptor kinase (TRK) inhibitors: Design, synthesis, and biological evaluation” (Eur J Med Chem, 2021).

Columns and labels:
[1] = target: T1, High affinity nerve growth factor receptor (Homo sapiens, UniProt P04629); experiment: Inhibition of recombinant His-tagged human TRKA (441 to 796 residues) expressed in baculovirus expression system using 5-FAM-EEPLYWSFPAKKK-CONH2 as substrate preincubated for 1 hr followed by substrate addition in presence of ATP by mobility shift assay
Target sequence in this assay (P04629 whole entry, the tested form may be a part): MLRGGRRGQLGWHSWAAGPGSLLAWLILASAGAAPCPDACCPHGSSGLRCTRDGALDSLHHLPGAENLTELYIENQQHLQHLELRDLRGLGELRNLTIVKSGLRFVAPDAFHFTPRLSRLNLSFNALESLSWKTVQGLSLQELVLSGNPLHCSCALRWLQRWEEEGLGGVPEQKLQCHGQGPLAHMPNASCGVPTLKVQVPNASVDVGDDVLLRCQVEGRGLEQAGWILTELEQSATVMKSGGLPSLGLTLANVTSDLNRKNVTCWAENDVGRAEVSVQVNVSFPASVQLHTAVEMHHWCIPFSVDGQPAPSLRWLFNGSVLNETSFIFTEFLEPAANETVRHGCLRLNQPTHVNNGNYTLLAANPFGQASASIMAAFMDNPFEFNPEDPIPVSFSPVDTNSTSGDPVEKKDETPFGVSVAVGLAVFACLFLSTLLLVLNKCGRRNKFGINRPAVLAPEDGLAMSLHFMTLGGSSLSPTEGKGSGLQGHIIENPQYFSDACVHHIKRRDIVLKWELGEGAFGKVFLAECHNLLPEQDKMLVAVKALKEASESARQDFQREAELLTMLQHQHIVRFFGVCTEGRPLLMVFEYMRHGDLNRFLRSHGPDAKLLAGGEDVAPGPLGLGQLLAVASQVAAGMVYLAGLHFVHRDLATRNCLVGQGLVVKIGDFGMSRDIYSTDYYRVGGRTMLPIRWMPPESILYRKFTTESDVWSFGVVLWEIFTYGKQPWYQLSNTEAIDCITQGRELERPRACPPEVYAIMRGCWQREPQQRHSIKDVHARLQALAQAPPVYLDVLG

[2] = target: T1, High affinity nerve growth factor receptor; experiment: Inhibition of recombinant His-tagged human TRKA (441 to 796 residues) expressed in baculovirus expression system at 20 uM using 5-FAM-EEPLYWSFPAKKK-CONH2 as substrate preincubated for 1 hr followed by substrate addition in presence of ATP by mobility shift assay relative to control
Target sequence in this assay (P04629 33-796 limits assumed): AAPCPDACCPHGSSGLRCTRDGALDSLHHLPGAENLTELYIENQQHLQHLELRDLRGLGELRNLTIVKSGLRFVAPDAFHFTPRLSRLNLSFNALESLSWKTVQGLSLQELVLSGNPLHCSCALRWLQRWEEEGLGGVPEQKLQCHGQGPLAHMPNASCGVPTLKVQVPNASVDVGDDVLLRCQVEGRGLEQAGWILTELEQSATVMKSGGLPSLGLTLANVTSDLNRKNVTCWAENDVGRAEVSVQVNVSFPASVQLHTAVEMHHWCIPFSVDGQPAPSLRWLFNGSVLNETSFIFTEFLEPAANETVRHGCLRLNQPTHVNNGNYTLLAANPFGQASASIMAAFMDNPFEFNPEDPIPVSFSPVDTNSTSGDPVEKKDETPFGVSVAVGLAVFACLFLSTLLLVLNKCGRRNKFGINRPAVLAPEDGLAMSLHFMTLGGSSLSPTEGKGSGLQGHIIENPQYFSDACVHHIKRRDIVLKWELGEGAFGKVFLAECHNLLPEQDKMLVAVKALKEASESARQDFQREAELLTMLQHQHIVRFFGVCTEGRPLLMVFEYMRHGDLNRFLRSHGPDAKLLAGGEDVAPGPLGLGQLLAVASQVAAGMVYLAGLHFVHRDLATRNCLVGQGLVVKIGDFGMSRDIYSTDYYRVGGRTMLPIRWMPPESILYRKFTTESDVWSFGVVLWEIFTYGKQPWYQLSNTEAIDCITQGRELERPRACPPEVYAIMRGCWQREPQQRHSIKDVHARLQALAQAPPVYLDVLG

[3] = system: KM12; experiment: Cytotoxicity against human KM12 cells assessed as reduction in cell viability incubated for 72 hrs by resazurin based assay; format: functional; settings: KM12, 72 h
[4] = Permeability of compound in human brain like endothelial cells BBB model at 10 uM after 120 mins by LC-MS analysis; format: ADME, cell-based; settings: read-out: permeability (converted)

| IC50 [1] [µM] | inhibition [2] [%] | Papp at 2 h, 10 µM [4] [×10⁻⁶ cm/s] | Structure (SMILES) | IC50 [3] [µM] |
| --- | --- | --- | --- | --- |
| > 200 | – | – | COc1cc(-c2cc3ncnc(Nc4ccc(CC(=O)Nc5ccc(F)c(Cl)c5)cc4)c3s2)cc(OC)c1OC | – |
| – | 18 | – | CC(C)(C)c1cc(NC(=O)Cc2ccc(-c3ncnc4ccsc34)cc2)no1 | 86.5 |
| – | 17.4 | – | Fc1ccc(Nc2ncnc3ccsc23)cc1 | 133 |
| – | 31.4 | – | Cn1nc(C(C)(C)C)cc1NC(=O)Cc1ccc(-c2ncnc3ccsc23)cc1 | 25.2 |
| – | 16.5 | – | O=C(c1ccc(Nc2ncnc3ccsc23)cc1)N1CCCCC1 | 150 |
| – | – | 17 | CN1CCN(c2ccc(C(=O)Nc3n[nH]c4ccc(Cc5cc(F)cc(F)c5)cc34)c(NC3CCOCC3)c2)CC1 [ENTRECTINIB] | 0.012 |
| – | 18 | – | O=C(Cc1ccc(-c2ncnc3ccsc23)cc1)N[C@@H]1CCCC[C@H]1O | > 200 |
